Reference: US12403184B2, “Compositions and methods for treating neurodegenerative disroders” (priority 2018, dated 2025)
Where no end group is shown, it is not given here.

Experiments:
Drp1/ATAD3A = target: T1, Drp1/ATAD3A (Mus musculus, UniProt Q925I1); assay: Immunoprecipitation of Drp1/ATAD3A binding in striatal extracts of treated HD R6/2 mice; assay type: in vivo; conditions: striatal extracts of HD R6/2 mice, 1 mg/kg/day from 6 to 12 weeks
T1 construct: The total lysates of cells or mouse striatum were subject to IP analysis; endogenous in cells; host or cells: HdhQ7 / HdhQ111 mouse striatal cells; wild-type mouse striatal cells exposed to 3-NP
T1 sequence (Q925I1 2-591 limits assumed): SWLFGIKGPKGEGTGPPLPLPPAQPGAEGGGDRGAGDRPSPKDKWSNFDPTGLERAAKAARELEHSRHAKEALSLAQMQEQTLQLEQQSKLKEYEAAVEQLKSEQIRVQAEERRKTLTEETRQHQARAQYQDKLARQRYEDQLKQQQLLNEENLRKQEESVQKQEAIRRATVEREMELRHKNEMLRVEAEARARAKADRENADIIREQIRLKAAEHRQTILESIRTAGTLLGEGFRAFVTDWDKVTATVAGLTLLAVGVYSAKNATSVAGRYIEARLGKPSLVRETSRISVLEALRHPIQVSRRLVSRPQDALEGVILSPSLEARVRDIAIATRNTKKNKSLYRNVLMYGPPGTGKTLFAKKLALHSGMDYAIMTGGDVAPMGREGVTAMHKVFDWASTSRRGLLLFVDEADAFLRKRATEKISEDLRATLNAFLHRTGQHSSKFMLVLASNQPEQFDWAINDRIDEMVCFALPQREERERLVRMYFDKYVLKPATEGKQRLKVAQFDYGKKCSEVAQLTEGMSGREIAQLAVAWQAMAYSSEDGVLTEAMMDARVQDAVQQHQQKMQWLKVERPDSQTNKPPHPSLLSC
Description: Cells and mouse brain tissues were harvested and lysed in total lysis buffer ([…], pH 7.9, […], […], 1% Triton X-100, and protease inhibitor cocktail) for 30 mins on ice and centrifuged at 12,000×g for 10 min at 4° C. The supernatants were incubated with the indicated primary antibodies or control IgG (sc-2025 and sc-2027, Santa Cruz Biotechnology) overnight at 4° C., followed by incubation with protein A/G beads (sc-2003, Santa Cruz Biotechnology) for 2 h at 4° C. The immunoprecipitates were washed with lysis buffer three times for a total of 30 min and then subject to WB analysis.
(§1) Systemic peptide treatment in HD mice. All randomization and peptide treatments were prepared by an experimenter not associated with behavioral and neuropathology analysis. Male R6/2 mice (Tg) and their age-matched wild-type littermates (Wt) (6-week-old) were implanted with a 28-day osmotic pump (Alzet, Cupertino CA, Model 2004) containing TAT control peptide or DA1 peptide, which delivered peptides at a rate of 1 mg/kg/day. Male YAC128 mice (Tg) and their age-matched wild-type littermates (WT) were treated with TAT control peptide or DA1 peptide (1 mg/kg/day) by Alzet osmotic pump starting from the age of 3 months. The pump was replaced once every month.

Drp1 = Drp1 (Homo sapiens, UniProt O00429); assay: Drp1 GTP hydrolysis in vitro; assay type: biochemical
Description: Drp1 GTP hydrolysis was monitored as a function of time as described previously.

mtDNA = assay: Measurement of mtDNA content; assay type: cell-based, mouse; conditions: HdhQ111 cells, relative to TAT
Description: Total DNA was isolated from cells using Blood and Cell culture kit (QIAGEN), and then subject to qPCR using QuantiTect SYBR Green (QIAGEN). Quantitative PCR was performed using nuclear primers (GAPDH or Tert) and mtDNA primers (mt-CO2, mt-ND2, mt-CO1 and D-loop). Three technical replicates were performed for each biological sample, and the mtDNA abundance of each replicate were normalized against nuclear DNA using the 2-ΔΔCT method.

YAC128 mice = assay: Locomotion activity in YAC128 mice; assay type: in vivo, mouse; conditions: 1 mg/kg/day from 3 to 12 months, effect from 6 until 12 months of age
Description: YAC128 [FVB-Tg(YAC128)53Hay/J, JAX stock number: 004938] breeders (FVB/N genetic background) were purchased from Jackson Laboratories. The YAC128 mice contain a full-length human huntingtin gene modified with a 128 CAG repeat expansion in exon 1. The mice were mated, bred, and genotyped in the animal facility of Case Western Reserve University. Male mice at the ages of 2, 3, 6, 9, and 12 months were used in the study.
as §1
Gross locomotor activity was assessed in R6/2 mice and age-matched wild-type littermates at the ages of 12 weeks, and in YAC128 mice and age-matched wildtype littermates at the ages of 2, 3, 6, 9, and 12 months. […] Distance moved, horizontal and vertical activities were recorded. […]

[1] = tested on: striatum of R6/2 and YAC128 mice; assay: Western blot of striatal proteins in treated HD mice; assay type: in vivo, mouse; conditions: for TFAM protein level / mtCO2 protein level: striatal mitochondria
Description: Cells were washed with cold phosphate-buffered saline (PBS) and incubated on ice in mitochondrial lysis buffer (250 mM sucrose, 20 mM HEPES-NaOH, pH 7.5, 10 mM KCl, 1.5 mM MgCl2, 1 mM EDTA, 1 mM EGTA, protease inhibitor cocktail, and phosphatase inhibitor cocktail) for 30 min. The cells were scraped and then disrupted 15 times by repeated aspiration through a 25-gauge needle. Mouse brains were minced and homogenized in mitochondrial lysis buffer to release mitochondria. The homogenates were spun at 800×g for 10 min at 4° C., and the resulting supernatants were spun at 12,000×g for 20 min at 4° C. The pellets were washed with lysis buffer and spun at 12,000×g again for 20 min at 4° C. The final pellets were suspended in lysis buffer containing 1% Triton X-100 and were mitochondrial-rich lysate fractions. The mitochondrial protein voltage-dependent anion channel (VDAC) was used as a loading control.
Protein concentration was measured by protein assay dye reagents (Bio-rad). The protein was resuspended in Laemmli buffer, loaded on SDS-PAGE, and transferred onto nitrocellulose membranes. Membranes were probed with the indicated antibodies, followed by visualization with ECL. Representative blots have been cropped for presentation.
as §1

[2] = YAC128 mice, 12 months old, striatal extracts

Chain of Drp1 (O00429 whole entry): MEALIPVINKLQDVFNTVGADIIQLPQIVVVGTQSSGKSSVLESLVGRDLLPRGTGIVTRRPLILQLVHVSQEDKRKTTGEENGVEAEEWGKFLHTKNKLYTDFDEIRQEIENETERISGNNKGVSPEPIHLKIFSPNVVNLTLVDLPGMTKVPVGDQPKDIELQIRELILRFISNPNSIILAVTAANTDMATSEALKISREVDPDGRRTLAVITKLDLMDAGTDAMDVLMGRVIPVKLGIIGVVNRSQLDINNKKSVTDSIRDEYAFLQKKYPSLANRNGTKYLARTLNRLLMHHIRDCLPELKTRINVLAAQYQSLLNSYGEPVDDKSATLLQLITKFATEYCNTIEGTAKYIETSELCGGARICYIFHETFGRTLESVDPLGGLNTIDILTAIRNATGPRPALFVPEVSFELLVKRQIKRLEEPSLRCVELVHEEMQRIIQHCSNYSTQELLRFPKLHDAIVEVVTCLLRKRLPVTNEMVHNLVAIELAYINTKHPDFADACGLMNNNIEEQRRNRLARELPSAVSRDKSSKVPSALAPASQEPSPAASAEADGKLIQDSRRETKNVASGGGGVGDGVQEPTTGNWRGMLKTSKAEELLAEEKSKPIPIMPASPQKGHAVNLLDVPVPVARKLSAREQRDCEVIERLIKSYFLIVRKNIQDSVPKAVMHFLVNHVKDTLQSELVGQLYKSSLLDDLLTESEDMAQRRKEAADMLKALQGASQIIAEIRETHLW

YGRKKRRQRRRGGEDKRKT-NH2 [DA1, YGRKKRRQRRR-GG-EDKRKT-NH2]
binding of Drp1/ATAD3A (Drp1/ATAD3A): significantly reduced | Drp1 oligomerization-induced GTPase activity (Drp1): no effects | mtDNA copy number (mtDNA): increased | general movement activity (YAC128 mice): improved | TFAM protein level ([1]; R6/2 mice, 12 weeks old): corrected | mtCO2 protein level ([1]; R6/2 mice, 12 weeks old): corrected | nuclear-encoded mitochondrial proteins ([1]; YAC128 and wildtype mice, 6 months old, striatal mitochondrial lysates): no observable effects | TFAM protein level ([1]; YAC128 mice, 6 months old): corrected | mtCO2 protein level ([1]; YAC128 mice, 6 months old): corrected | DARPP-32 protein level [1, 2]: increased | PSD95 protein level [1, 2]: increased | PGC1α protein levels ([1]; YAC128 mouse striatum, until 12 months of age): increased
